Series [1] in a line: physchem. As to conditions: buffer, pH 7.4.
Series [2] is described as follows: in vitro. Conditions: human, plasma.
The conditions of series [3]: male, cynomolgus monkey, in vivo, po.
For series [4] the following is noted: male, SD, rat, in vivo, po.
The nature of series [5]: physchem. Conditions: thermodynamic from solid.
Test in series [6]: not given
This is another data set of the same source.

Series [7] is described as follows: in vivo. As to conditions: rat.
A short description of series [8]: Solubility of TTI-101 as described in the text. It counts as physicochemical. As to conditions: aqueous solutions.
Series [9] in a line: Pharmacokinetics in monkeys (TTI-101 in plasma by LC-MS/MS). Conditions: male, cynomolgus monkey, iv, 26 mg/kg.
Setting [10] is: pH 2, aqueous buffer, Solubility (pH = 2.0).

Converted amounts (≈) assume the structure as drawn. Counter-ions that a name gives are not always drawn. Like-named read-outs stand apart in the source and are kept apart here.

For orientation: half-life means the time in which the quantity being followed falls by half. A higher half-life goes with slow loss. With `CNCCCN(C)C(=O)Oc1c(-c2c(O)ccc3ccccc23)cc(NS(=O)(=O)c2ccc(OC)cc2)c2ccccc12` [Compound 4, 2-hydroxy-4′-((4-methoxyphenyl)sulfonamido)-[1,2′-binaphthalen]-1′-yl methyl(3-(methylamino)propyl)carbamate hydrochloride], the half-life at 2 µM stood at 1 h in series [1] and 4.3 min in [2]. Further, for the setting “phosphate buffer pH 2.0, 37° C., up to 1440 minutes”, the “Aqueous Stability (pH = 2.0)” value is listed as “Stable”. Also, the “Aqueous Stability (pH = 3.5)” value (phosphate buffer pH 3.5, 37° C., up to 1440 minutes) is listed as “Stable”. Under “phosphate buffer pH 7.4, 37° C., up to 1440 minutes”, the “Aqueous Stability (pH = 7.4) (in words)” value was “Unstable;”.
One may read the Tmax as the time from dosing to the highest level. Usually solubility stands for how much of the substance goes into solution per volume. As to `COc1ccc(S(=O)(=O)Nc2cc(-c3c(O)ccc4ccccc34)c(OP(=O)(O)O)c3ccccc23)cc1` [Compound 9, 2-hydroxy-4′-((4-methoxyphenyl)sulfonamido)-[1,2′-binaphthalen]-1′-yl dihydrogen phosphate], the “F % (bioavailability, calculated on dose levels)” value in series [3] is reported as 81.3%; in [4], 58.5%. Moreover, the T1/2 in series [3] is reported as 6.7 ± 1.4 h; in series [4] it was 2.0 ± 0.4 h. Besides, the Tmax was found to be 1.7 ± 0.6 h in series [3] and 1.8 ± 1.7 h in series [4]. Also, the AUClast stood at 75704 ± 14050 ng·h/mL in [3] (24.3 mg/kg) and 37775 ± 14217 ng·h/mL in [4] (22.4 mg/kg). For the same molecule, the solubility came to 1530 µg/mL in series [5] (setting [10]) and 6160 µg/mL in series [5] (pH 7.4, aqueous buffer, Solubility (pH = 7.4)). The “Aqueous Stability (pH = 2.0)” value (pH 2) is “Stable”. The “Aqueous Stability (pH = 3.5)” value (pH 3.5) was “Stable”. In addition, where the note is “pH 7.4”, the “Aqueous Stability (pH = 7.4) (in words)” value is given as “Stable”.
Turning to `COc1ccc(S(=O)(=O)Nc2cc3c(c4ccccc24)OP(=O)(O)Oc2ccc4ccccc4c2-3)cc1` [Compound 9A, N-((6)-6-hydroxy-6-oxidodinaphtho[1,2-d:1′,2′-f][1,3,2]dioxaphosphepin-15-yl)-4-methoxybenzenesulfonamide], in series [3], the “F % (bioavailability, calculated on dose levels)” value is recorded as 6.7% and the Tmax amounted to 8.0 ± 0 h. In addition, the AUClast in series [3] (53.5 mg/kg) is 5203 + 1048 ng*h/mL. In addition, in series [6], the “Solubility (pH = 7.4)” value is given as 37, 12 ug/mL. For the same molecule, in [5] (setting [10]), the solubility stood at 56 µg/mL (≈ 105 µM). The “Aqueous Stability (pH = 2.0)” value (pH 2) is reported as “Stable”. For the same molecule, the “Aqueous Stability (pH = 3.5)” value (pH 3.5) is “Stable”. Also, under “pH 7.4”, the “Aqueous Stability (pH = 7.4) (in words)” value was “Stable”.
By AUC(0-t) is commonly meant exposure summed from dosing to a finite time, without extrapolation to infinity. Higher therefore signals high exposure. What is called bioavailability is the share of a dose that reaches the circulation, judged against a reference dose that is usually intravenous. For the molecule `COc1ccc(S(=O)(=O)Nc2cc(-c3c(O)ccc4ccccc34)c(O)c3ccccc23)cc1` [TTI-101, N-(1′,2-dihydroxy-[1,2′-binaphthalen]-4′-yl)-4-methoxybenzenesulfonamide], the AUC(0-t) in [7] (male, SD, iv, 21.5 mg/kg) is 72400 ± 15100 ng·h/mL; in series [9], 116000 ± 7170 ng·h/mL. Further, the half-life in series [7] (male, SD, iv, 21.5 mg/kg) was 2.8 ± 0.6 h; in series [9], 2.4 ± 0.1 h. Besides, the bioavailability in series [7] (po) was found to be 40.4%. The “Solubility (in words)” value in series [8] is “insoluble in aqueous solutions”.

The values are drawn from patent publication US20260242402A1, “PRODRUGS OF STAT3 INHIBITORS” (Tvardi Operating Company, Inc., priority 2022, published 2026).
